Reference: ChEMBL document CHEMBL1142324, “Synthesis and cerebral uptake of 1-(1-[(11)C]methyl-1H-pyrrol-2-yl)-2-phenyl-2-(1-pyrrolidinyl)ethanone, a novel tracer for positron emission tomography studies of monoamine oxidase type A” (J Med Chem, 2008)

What was measured:
Format in all cases: ADME, organism-based, Sus scrofa
Conditions in all cases: read-out: Stability
[1] = Metabolic stability in iv dosed pig plasma after 10 mins
[2] = Metabolic stability in iv dosed pig plasma after 50 mins
[3] = Metabolic stability in iv dosed pig plasma after 30 mins
[4] = Metabolic stability in iv dosed pig plasma after 2 mins
[5] = Metabolic stability in iv dosed pig plasma after 30 seconds

remaining at 10 min [1] [%]	remaining at 50 min [2] [%]	remaining at 0.5 h [3] [%]	remaining at 2 min [4] [%]	remaining at 0.5 min [5] [%]	SMILES
68	24	41	98	99.7	[11CH3]n1cccc1C(=O)[C@@H](c1ccccc1)N1CCCC1
68	24	41	98	99.7	[11CH3]n1cccc1C(=O)[C@H](c1ccccc1)N1CCCC1
